According to patent publication US20070282007A1, “TREATMENT OF PAIN DISORDERS WITH trans 4-(3,4-DICHLOROPHENYL)-1,2,3,4-TETRAHYDRO-1-NAPHTHALENAMINE AND ITS FORMAMIDE” (SEPRACOR INC., priority 2006, published 2007):

Columns and labels:
[1] = molecular target: B2 (Homo sapiens, UniProt P30411); experiment: In vitro radioligand binding assay, B2
[2] = system: Rat SNL Model; experiment: SNL model of neuropathic pain, mechanical hyperalgesia testing; type: in vivo
Protocol: The animals were anesthetized with isoflurane, the left L5 transverse process was removed, and the L5 and L6 spinal nerves were tightly ligated with 6-0 silk suture. The wound was then closed with internal sutures and external staples. Wound clips were removed 10-11 days following surgery.
Mechanical hyperalgesia testing: Baseline, post-injury and post-treatment values for […] mechanical sensitivity were evaluated using a Paw Pressure Analgesymeter (7200, Ugo Basile, Comerio, Italy) which generates a linearly increasing mechanical force. The mechanical nociceptive stimulus was applied to the plantar surface of the hind paws by a dome-shaped plastic tip placed between the 3rd and 4th metatarsus. […] Mechanical thresholds were defined as the force in grams at the first pain behavior, which includes paw withdrawal, struggle and/or vocalization. Paw pressure test was performed on each hind paw for each animal. The mean and standard error of the mean (SEM) were determined for each paw, in each treatment group. Mechanical hyperalgesia was evaluated 24 days post-surgery.
Ten rats were studied per group and the tests were performed blind. (1R,4S)-4-(3,4-dichlorophenyl)-1,2,3,4-tetrahydro-1-naphthalenamine (P) was evaluated at 3 doses (5, 10 and 15 mg/kg), administered orally and compared with a vehicle control group. Gabapentin (100 mg/kg) and duloxetine (30 mg/kg) administered orally under the same experimental conditions, were used as comparator substances. Mechanical allodynia and hyperalgesia testing were conducted at baseline and 1, 2 and 4 hours after test article administration.

[3] = system: Long-Evans derived rats; experiment: Porsolt forced swim test; type: in vivo, rat; conditions: for Mean Immobility Time (% of Total) ± SEM, Day 2 Study: 3 administrations; for Mean Immobility Time (% of Total) ± SEM, Day 4 Study: 7 administrations
Protocol: Performance in the Porsolt forced swim test was evaluated for sertraline and Compound P following protocols outlined in Porsolt R. D., et al., Arch. Int. Pharmacodyn., 229: 327 ([…]).
The Porsolt forced swim test is a model of “behavioral despair”, which has been used as an in vivo model for assessing potential antidepressant-like activity. Both test articles were dissolved in physiological saline (vehicle) and administered intraperitoneally. […] Long-Evans derived rats were used.

[4] = molecular target: T1, DA transporter (Homo sapiens, UniProt Q01959); experiment: Radioligand binding assay, DA transporter ([3H]GBR 12935 displacement); conditions: human recombinant; [3H]GBR 12935 0.5 nM; read-out: Ki, Dopamine (DA) transporter
T1 construct: expressed in transfected cells
T1 sequence (Q01959 whole entry): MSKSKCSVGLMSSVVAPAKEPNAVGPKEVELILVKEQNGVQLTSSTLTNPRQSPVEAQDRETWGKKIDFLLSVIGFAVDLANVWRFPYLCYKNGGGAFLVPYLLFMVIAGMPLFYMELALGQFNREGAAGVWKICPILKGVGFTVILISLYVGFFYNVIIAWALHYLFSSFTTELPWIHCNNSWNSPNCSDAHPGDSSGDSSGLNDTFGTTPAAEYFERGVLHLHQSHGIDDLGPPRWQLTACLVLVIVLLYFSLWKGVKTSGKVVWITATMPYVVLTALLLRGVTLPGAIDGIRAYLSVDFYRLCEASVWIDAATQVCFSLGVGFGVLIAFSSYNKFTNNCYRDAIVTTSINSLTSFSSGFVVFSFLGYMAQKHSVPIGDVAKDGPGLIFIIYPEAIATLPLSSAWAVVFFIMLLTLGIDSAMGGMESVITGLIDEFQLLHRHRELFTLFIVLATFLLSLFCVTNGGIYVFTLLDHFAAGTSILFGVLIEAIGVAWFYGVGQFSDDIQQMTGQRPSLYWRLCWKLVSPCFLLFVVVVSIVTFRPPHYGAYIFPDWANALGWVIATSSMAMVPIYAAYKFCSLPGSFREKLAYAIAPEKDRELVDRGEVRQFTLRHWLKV
Protocol: The assays measured the affinity of the two compounds for transporters of the monoamines 5-HT, NE and DA. […] The transporters were human recombinant proteins expressed in mammalian cells. Binding to the 5-HT transporter was assessed by evaluating displacement of [^3H]paroxetine (0.1 nM). […] Binding to the NE transporter was assessed by evaluating displacement of [^3H]nisoxetine (0.3 nM).

[5] = molecular target: 5-HT1B (Homo sapiens, UniProt P28222); experiment: In vitro radioligand binding assay, 5-HT1B
Sequence of 5-HT1B (P28222 whole entry, species assumed): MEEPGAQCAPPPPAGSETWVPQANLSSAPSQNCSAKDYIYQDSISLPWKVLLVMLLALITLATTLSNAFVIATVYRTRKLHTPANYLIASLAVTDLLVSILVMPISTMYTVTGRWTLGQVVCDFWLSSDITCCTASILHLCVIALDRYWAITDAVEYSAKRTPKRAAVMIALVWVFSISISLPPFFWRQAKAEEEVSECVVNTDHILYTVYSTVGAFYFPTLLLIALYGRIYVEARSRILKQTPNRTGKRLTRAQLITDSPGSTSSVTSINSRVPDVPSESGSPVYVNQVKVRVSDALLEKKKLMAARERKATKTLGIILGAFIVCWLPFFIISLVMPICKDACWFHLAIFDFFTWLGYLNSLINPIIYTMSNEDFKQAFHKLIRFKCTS

[6] = system: rats; experiment: Formalin test, second test with Automated Nociception Analyzer; type: in vivo, rat; conditions: automated detection; for Number of Flinches, Acute Phase (Mean ± SEM): 0-10 minutes after formalin; for Number of Flinches, Late Phase (Mean ± SEM): 10-60 minutes after formalin
Protocol: In a second test, flinching behaviors were measured for 90 minutes after formalin injection using an automated detection system. […] This device used a magnetic detection system to measure paw movements, called “flinches”. Small metal bands were attached to the left hind paw of rats just before placement into individual circular test chambers 30 minutes prior to formalin injection. […] In addition to duloxetine, morphine (6 mg/kg, subcutaneously) was used as a comparator substance. Animals were treated with morphine 30 minutes prior to the formalin injection. To initiate the experiment, the rats were injected with formalin subcutaneously on the dorsal surface of the left hind paw and placed in the test chambers. The instrument subsequently recorded rapid foot movements counted in one minute epochs.

[7] = molecular target: T2, M5 (Homo sapiens, UniProt P08912); experiment: In vitro radioligand binding assay, M5; conditions: read-out: Ki, M5
T2 sequence (P08912 1-532): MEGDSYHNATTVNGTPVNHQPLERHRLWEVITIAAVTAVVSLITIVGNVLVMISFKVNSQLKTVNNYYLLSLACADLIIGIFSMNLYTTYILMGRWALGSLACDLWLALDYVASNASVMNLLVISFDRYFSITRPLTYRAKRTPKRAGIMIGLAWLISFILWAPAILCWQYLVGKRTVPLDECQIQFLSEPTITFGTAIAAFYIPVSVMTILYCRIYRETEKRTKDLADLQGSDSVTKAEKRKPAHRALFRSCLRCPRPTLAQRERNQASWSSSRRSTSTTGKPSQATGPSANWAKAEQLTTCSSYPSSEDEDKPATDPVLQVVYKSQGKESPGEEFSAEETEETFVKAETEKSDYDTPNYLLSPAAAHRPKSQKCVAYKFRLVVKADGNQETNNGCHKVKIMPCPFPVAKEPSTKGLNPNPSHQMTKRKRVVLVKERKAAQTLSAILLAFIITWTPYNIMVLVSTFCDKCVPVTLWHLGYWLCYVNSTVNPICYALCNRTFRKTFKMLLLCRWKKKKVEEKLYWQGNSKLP

[8] = molecular target: T3, Norepinephrine (NE) uptake (Rattus norvegicus, UniProt Q63380); experiment: Functional uptake of radiolabeled NE into synaptosomes from rat hypothalamus; type: biochemical
T3 construct: from tissue; host or cells: synaptosomes from rat hypothalamus
T3 sequence (Q63380 1-617): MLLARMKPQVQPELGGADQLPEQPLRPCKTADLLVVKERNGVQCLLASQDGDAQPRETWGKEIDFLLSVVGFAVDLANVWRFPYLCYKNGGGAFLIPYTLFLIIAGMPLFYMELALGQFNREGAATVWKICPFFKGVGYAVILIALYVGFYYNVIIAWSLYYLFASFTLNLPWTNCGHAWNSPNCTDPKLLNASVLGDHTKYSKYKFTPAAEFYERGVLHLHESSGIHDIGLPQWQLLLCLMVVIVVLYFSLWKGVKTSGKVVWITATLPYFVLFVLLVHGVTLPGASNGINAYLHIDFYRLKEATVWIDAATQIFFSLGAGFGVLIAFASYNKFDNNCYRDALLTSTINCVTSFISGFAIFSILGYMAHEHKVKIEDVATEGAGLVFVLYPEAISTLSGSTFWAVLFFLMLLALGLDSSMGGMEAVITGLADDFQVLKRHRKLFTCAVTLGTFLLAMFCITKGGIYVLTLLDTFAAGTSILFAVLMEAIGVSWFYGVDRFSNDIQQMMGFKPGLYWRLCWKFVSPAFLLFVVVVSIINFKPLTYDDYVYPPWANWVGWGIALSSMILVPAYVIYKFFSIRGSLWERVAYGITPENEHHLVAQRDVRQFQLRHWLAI
Protocol: The 5-HT and NE assays were performed essentially as outlined in Perovic S. & Müller W. E. G., Arzneim.-Forsch.

[9] = system: Beagle dogs; experiment: Cardiovascular safety study in conscious telemetered dogs; type: in vivo; conditions: single oral doses 0.5, 1.5 and 5 mg/kg
Protocol: There were four animals/compound and each animal within the treatment group was exposed to the three doses (plus a empty capsule control), in a dose ramp-up manner with a minimum of 72 hours between doses.

[10] = molecular target: T4, recombinant human Norepinephrine (NE) transporter (Homo sapiens, UniProt P23975); experiment: Functional uptake of NE into cells expressing recombinant human transporters; type: cell-based; conditions: read-out: IC50 inhibition of functional uptake in human transporters, Norepinephrine (NE)
T4 construct: expressed in transfected cells
T4 sequence (P23975 whole entry): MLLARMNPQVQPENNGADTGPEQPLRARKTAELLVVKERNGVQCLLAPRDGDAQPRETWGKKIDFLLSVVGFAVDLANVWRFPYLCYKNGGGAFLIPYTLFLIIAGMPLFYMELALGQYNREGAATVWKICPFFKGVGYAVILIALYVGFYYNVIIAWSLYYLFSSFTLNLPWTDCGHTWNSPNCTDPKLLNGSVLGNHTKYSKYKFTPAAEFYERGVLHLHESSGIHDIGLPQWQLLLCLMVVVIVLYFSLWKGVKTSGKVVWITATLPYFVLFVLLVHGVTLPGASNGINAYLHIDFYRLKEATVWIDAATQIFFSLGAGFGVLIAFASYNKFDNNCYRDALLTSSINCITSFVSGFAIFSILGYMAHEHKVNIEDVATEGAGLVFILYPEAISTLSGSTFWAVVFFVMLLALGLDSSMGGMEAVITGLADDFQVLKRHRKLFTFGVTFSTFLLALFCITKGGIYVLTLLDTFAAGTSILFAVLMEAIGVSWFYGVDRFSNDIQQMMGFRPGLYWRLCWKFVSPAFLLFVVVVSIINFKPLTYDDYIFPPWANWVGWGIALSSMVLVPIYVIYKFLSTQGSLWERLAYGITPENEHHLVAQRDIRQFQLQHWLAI

[11] = molecular target: M2 (Homo sapiens, UniProt P08172); experiment: In vitro radioligand binding assay, M2
Sequence of M2 (P08172 whole entry): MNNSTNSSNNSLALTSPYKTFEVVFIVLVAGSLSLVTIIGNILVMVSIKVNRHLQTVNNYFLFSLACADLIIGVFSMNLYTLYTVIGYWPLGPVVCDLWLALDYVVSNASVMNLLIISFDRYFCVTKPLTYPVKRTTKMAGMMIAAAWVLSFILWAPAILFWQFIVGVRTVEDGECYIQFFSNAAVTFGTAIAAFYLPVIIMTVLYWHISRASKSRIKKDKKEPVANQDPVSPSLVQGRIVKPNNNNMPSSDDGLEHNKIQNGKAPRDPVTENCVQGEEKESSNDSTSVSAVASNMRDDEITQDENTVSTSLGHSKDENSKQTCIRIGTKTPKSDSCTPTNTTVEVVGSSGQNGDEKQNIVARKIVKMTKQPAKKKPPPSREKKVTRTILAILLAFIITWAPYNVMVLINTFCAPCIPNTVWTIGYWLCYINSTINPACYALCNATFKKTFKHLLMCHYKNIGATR

[12] = molecular target: D1 (Homo sapiens, UniProt P21728); experiment: In vitro radioligand binding assay, D1
Sequence of D1 (P21728 whole entry): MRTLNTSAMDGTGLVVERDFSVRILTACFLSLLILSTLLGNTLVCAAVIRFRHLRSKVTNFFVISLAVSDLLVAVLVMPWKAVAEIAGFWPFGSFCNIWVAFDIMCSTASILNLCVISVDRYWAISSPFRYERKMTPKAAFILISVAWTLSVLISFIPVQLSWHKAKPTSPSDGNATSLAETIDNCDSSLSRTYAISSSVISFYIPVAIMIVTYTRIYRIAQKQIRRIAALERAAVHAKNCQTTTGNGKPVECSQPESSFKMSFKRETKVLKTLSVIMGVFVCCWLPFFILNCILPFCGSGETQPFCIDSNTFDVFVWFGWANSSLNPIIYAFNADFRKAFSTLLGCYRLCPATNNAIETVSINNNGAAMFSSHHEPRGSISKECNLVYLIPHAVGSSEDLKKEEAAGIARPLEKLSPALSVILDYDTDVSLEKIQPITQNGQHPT

Sequence of B2 (P30411 whole entry): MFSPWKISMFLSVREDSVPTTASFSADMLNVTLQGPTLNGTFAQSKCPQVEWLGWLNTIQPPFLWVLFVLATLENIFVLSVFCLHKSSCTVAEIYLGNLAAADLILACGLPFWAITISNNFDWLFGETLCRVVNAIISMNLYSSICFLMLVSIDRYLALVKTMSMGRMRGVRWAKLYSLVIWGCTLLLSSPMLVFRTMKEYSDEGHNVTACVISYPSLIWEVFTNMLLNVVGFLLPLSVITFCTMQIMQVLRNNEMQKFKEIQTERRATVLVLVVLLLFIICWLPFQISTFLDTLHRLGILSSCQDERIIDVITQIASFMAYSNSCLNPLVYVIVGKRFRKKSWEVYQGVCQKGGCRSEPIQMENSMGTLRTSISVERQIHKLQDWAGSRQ

Structure (SMILES): N[C@@H]1CC[C@@H](c2ccc(Cl)c(Cl)c2)c2ccccc21 [Compound P, (1R,4S)-trans 4-(3,4-dichlorophenyl)-1,2,3,4-tetrahydro-1-napthalenamine]
- Ki [1]: 1500 nM
- Mechanical Hyperalgesia, Paw Pressure Threshold (Mean ± SEM) ([2]; 5 mg/kg PO, 0 h (Baseline)): 147 ± 17 g
- Mechanical Hyperalgesia, Paw Pressure Threshold (Mean ± SEM) ([2]; 5 mg/kg PO, 1 h): 183 ± 35 g
- Mechanical Hyperalgesia, Paw Pressure Threshold (Mean ± SEM) ([2]; 5 mg/kg PO, 2 h): 240 ± 32 g
- Mechanical Hyperalgesia, Paw Pressure Threshold (Mean ± SEM) ([2]; 5 mg/kg PO, 4 h): 257 ± 37 g
- Mechanical Hyperalgesia, Paw Pressure Threshold (Mean ± SEM) ([2]; 10 mg/kg PO, 0 h (Baseline)): 152 ± 18 g
- Mechanical Hyperalgesia, Paw Pressure Threshold (Mean ± SEM) ([2]; 10 mg/kg PO, 1 h): 213 ± 32 g
- Mechanical Hyperalgesia, Paw Pressure Threshold (Mean ± SEM) ([2]; 10 mg/kg PO, 2 h): 309 ± 27 g
- Mechanical Hyperalgesia, Paw Pressure Threshold (Mean ± SEM) ([2]; 10 mg/kg PO, 4 h): 282 ± 30 g
- Mechanical Hyperalgesia, Paw Pressure Threshold (Mean ± SEM) ([2]; 15 mg/kg PO, 0 h (Baseline)): 164 ± 22 g
- Mechanical Hyperalgesia, Paw Pressure Threshold (Mean ± SEM) ([2]; 15 mg/kg PO, 1 h): 281 ± 37 g
- Mechanical Hyperalgesia, Paw Pressure Threshold (Mean ± SEM) ([2]; 15 mg/kg PO, 2 h): 251 ± 37 g
- Mechanical Hyperalgesia, Paw Pressure Threshold (Mean ± SEM) ([2]; 15 mg/kg PO, 4 h): 269 ± 37 g
- Mean Immobility Time (% of Total) ± SEM, Day 2 Study ([3]; 1.25 mg/kg i.p.): 77 ± 3 % of Total
- Mean Immobility Time (% of Total) ± SEM, Day 4 Study ([3]; 1.25 mg/kg i.p.): 69 ± 4 % of Total
- Mean Immobility Time (% of Total) ± SEM, Day 2 Study ([3]; 2.5 mg/kg i.p.): 48 ± 6 % of Total
- Mean Immobility Time (% of Total) ± SEM, Day 4 Study ([3]; 2.5 mg/kg i.p.): 46 ± 8 % of Total
- Mean Immobility Time (% of Total) ± SEM, Day 2 Study ([3]; 5.0 mg/kg i.p.): 49 ± 5 % of Total
- Mean Immobility Time (% of Total) ± SEM, Day 4 Study ([3]; 5.0 mg/kg i.p.): 19 ± 6 % of Total
- Ki [4]: 16 nM
- Ki [5]: 1000 nM
- Number of Flinches, Acute Phase (Mean ± SEM) ([6]; 5 mg/kg PO): 194 ± 33
- Number of Flinches, Late Phase (Mean ± SEM) ([6]; 5 mg/kg PO): 1263 ± 181
- Number of Flinches, Acute Phase (Mean ± SEM) ([6]; 10 mg/kg PO): 143 ± 27
- Number of Flinches, Late Phase (Mean ± SEM) ([6]; 10 mg/kg PO): 1679 ± 163
- Number of Flinches, Acute Phase (Mean ± SEM) ([6]; 15 mg/kg PO): 212 ± 40
- Number of Flinches, Late Phase (Mean ± SEM) ([6]; 15 mg/kg PO): 2236 ± 153
- Ki [7]: 8400 nM
- IC50 [8]: 9.6 nM
- effect on heart rate, blood pressure or ECG parameters (including QTc) [9]: no effect
- IC50 [10]: 15.6 nM
- Ki [11]: 5000 nM
- Ki [12]: 6800 nM
